Source: patent US8106004B2, “Methods of inhibiting tumor cell aggressiveness using the microenvironment of human embryonic stem cells” (Children's Memorial Hospital, priority 2006, dated 2012)

Tested on: MDA-MB-231 breast carcinoma cells
Assay: In vivo tumor formation, orthotopic mouse model, MDA-MB-231 breast carcinoma cells
Settings: 500,000 MDA-MB-231 cells treated with Morpholino before injection
Excerpt: (A) In vivo tumor formation in a mouse injected with MDA-MB-231 cells pre-exposed for 3 days to either a control matrix (Matrigel) or a matrix conditioned by hESCs (H9 CMTX) (n=10) (B) C81-61 cells, transfected with either an empty vector or a Nodal expression construct (n=5), and (C) MDA-MB-231 cells treated with either MO^Control or MO^Nodal (n=10). […] (D) The ratio of tumor cell proliferation to apoptosis for C8161 and MDA-MB-231 derived tumors, determined by immunohistochemical staining for Ki67 and terminal deoxynucleotidyl transferase biotin-dUTP nick-end labeling (TUNEL). Prior to injection into a mouse, C8161 and MDA-MB-231 cells were cultured for 3 days on control or hESC conditioned (H9 CMTX) matrices, or treated with MO^Nodal to knock down Nodal expression. […] Proliferation is indicated by Ki67 staining and apoptotic nuclei were detected with confocal microscopy as red staining localized to the nuclei of apoptotic C8161 or MDA-MB-231 cells. […]
The effects of the hESC microenvironment on the in vivo tumorigenicity of melanoma and breast carcinoma cells were examined using orthotopic mouse models. […] The […] C81-61 melanoma cell line was unable to form palpable tumors when 500,000 cells were injected, and using gross observation and histology 5.5 weeks after inoculation, these tumor cells could not be detected at the site of injection. […]

Substance: MO^Nodal: FITC-conjugated anti-sense Morpholino to Nodal, 5′-AAGCAGCACCTCCAGCCCTTATATC-3′ [SEQ ID NO: 20] (all phosphorodiamidate morpholino (PMO); FITC conjugated, position not given here)
- tumorigenicity: significant reduction
